Source: the CheMixHub viscosity set
± gives the uncertainty stated by the source.

Experiment: xn = mol fraction of the nth substance listed

**Q.** For OCCO + O, which viscosity (293.15 K, 100 kPa, x1 = 0.3) is on record?
**A.** 5.035 ± 0.015 mPa·s

**Q.** And the viscosity (293.15 K, 101 kPa, x1 = 0.0744)?
**A.** 1.724 ± 0.023 mPa·s

**Q.** And the viscosity (293.15 K, 101 kPa, x1 = 0.1209)?
**A.** 2.258 ± 0.03 mPa·s

**Q.** What about the viscosity (293.15 K, 101.3 kPa, x1 = 0.031) of the same molecule?
**A.** 1.28 ± 0.03 mPa·s

**Q.** And the viscosity (293.15 K, 101.3 kPa, x1 = 0.068)?
**A.** 1.79 ± 0.05 mPa·s

**Q.** What about the viscosity (293.15 K, 101.3 kPa, x1 = 0.11) of the same molecule?
**A.** 1.9 ± 0.05 mPa·s

**Q.** What about the viscosity (293.15 K, 101.3 kPa, x1 = 0.14) of the same molecule?
**A.** 2.47 ± 0.07 mPa·s

**Q.** And the viscosity (293.15 K, 101.3 kPa, x1 = 0.16)?
**A.** 2.8 ± 0.08 mPa·s

**Q.** What about the viscosity (293.15 K, 101.3 kPa, x1 = 0.19) of the same molecule?
**A.** 3.14 ± 0.08 mPa·s

**Q.** And the viscosity (293.15 K, 101.3 kPa, x1 = 0.22)?
**A.** 3.66 ± 0.1 mPa·s

**Q.** And the viscosity (293.15 K, 101.3 kPa, x1 = 0.26)?
**A.** 4.09 ± 0.11 mPa·s

**Q.** And the viscosity (293.15 K, 101.3 kPa, x1 = 0.3)?
**A.** 4.68 ± 0.13 mPa·s

**Q.** And the viscosity (293.15 K, 101.3 kPa, x1 = 0.4)?
**A.** 6.5 ± 0.18 mPa·s

**Q.** And the viscosity (293.15 K, 101.3 kPa, x1 = 0.54)?
**A.** 9.03 ± 0.24 mPa·s

**Q.** What about the viscosity (293.15 K, 101.3 kPa, x1 = 0.72) of the same molecule?
**A.** 13.6 ± 0.4 mPa·s

**Q.** And the viscosity (298.15 K, 101 kPa, x1 = 0.0414)?
**A.** 1.22 ± 0.01 mPa·s

**Q.** And the viscosity (298.15 K, 101 kPa, x1 = 0.118)?
**A.** 1.97 ± 0.02 mPa·s

**Q.** What about the viscosity (298.15 K, 101 kPa, x1 = 0.1553) of the same molecule?
**A.** 2.36 ± 0.02 mPa·s

**Q.** And the viscosity (298.15 K, 101 kPa, x1 = 0.3385)?
**A.** 4.73 ± 0.03 mPa·s

**Q.** And the viscosity (298.15 K, 101 kPa, x1 = 0.3521)?
**A.** 4.96 ± 0.04 mPa·s

**Q.** What about the viscosity (298.15 K, 101 kPa, x1 = 0.4133) of the same molecule?
**A.** 5.94 ± 0.04 mPa·s

**Q.** What about the viscosity (298.15 K, 101 kPa, x1 = 0.5333) of the same molecule?
**A.** 7.96 ± 0.06 mPa·s

**Q.** And the viscosity (298.15 K, 101 kPa, x1 = 0.6376)?
**A.** 9.9 ± 0.07 mPa·s

**Q.** What about the viscosity (298.15 K, 101 kPa, x1 = 0.7762) of the same molecule?
**A.** 12.56 ± 0.09 mPa·s

**Q.** What about the viscosity (298.15 K, 101 kPa, x1 = 0.8769) of the same molecule?
**A.** 14.49 ± 0.1 mPa·s

**Q.** And the viscosity (298.15 K, 101 kPa, x1 = 0.907)?
**A.** 15.05 ± 0.1 mPa·s

**Q.** What about the viscosity (298.15 K, 101 kPa, x2 = 0.0034) of the same molecule?
**A.** 16.94 ± 0.12 mPa·s

**Q.** And the viscosity (298.15 K, 101.33 kPa, x1 = 0.1753)?
**A.** 2.58 ± 0.07 mPa·s

**Q.** What about the viscosity (298.15 K, 101.33 kPa, x1 = 0.3316) of the same molecule?
**A.** 4.73 ± 0.12 mPa·s

**Q.** And the viscosity (298.15 K, 101.33 kPa, x1 = 0.5615)?
**A.** 8.36 ± 0.22 mPa·s

**Q.** And the viscosity (303.15 K, 101.3 kPa, x1 = 0.031)?
**A.** 0.92 ± 0.03 mPa·s

**Q.** What about the viscosity (303.15 K, 101.3 kPa, x1 = 0.068) of the same molecule?
**A.** 1.27 ± 0.03 mPa·s

**Q.** And the viscosity (303.15 K, 101.3 kPa, x1 = 0.11)?
**A.** 1.43 ± 0.04 mPa·s

**Q.** And the viscosity (303.15 K, 101.3 kPa, x1 = 0.14)?
**A.** 1.87 ± 0.05 mPa·s

**Q.** And the viscosity (303.15 K, 101.3 kPa, x1 = 0.16)?
**A.** 2.09 ± 0.06 mPa·s

**Q.** What about the viscosity (303.15 K, 101.3 kPa, x1 = 0.19) of the same molecule?
**A.** 2.34 ± 0.06 mPa·s

**Q.** And the viscosity (303.15 K, 101.3 kPa, x1 = 0.22)?
**A.** 2.7 ± 0.07 mPa·s

**Q.** And the viscosity (303.15 K, 101.3 kPa, x1 = 0.26)?
**A.** 2.99 ± 0.08 mPa·s

**Q.** What about the viscosity (303.15 K, 101.3 kPa, x1 = 0.3) of the same molecule?
**A.** 3.38 ± 0.09 mPa·s

**Q.** What about the viscosity (303.15 K, 101.3 kPa, x1 = 0.4) of the same molecule?
**A.** 4.59 ± 0.12 mPa·s

**Q.** And the viscosity (303.15 K, 101.3 kPa, x1 = 0.54)?
**A.** 6.29 ± 0.17 mPa·s

**Q.** What about the viscosity (303.15 K, 101.3 kPa, x1 = 0.72) of the same molecule?
**A.** 9.22 ± 0.25 mPa·s

**Q.** And the viscosity (303.15 K, 101.33 kPa, x1 = 0.0003)?
**A.** 0.778 ± 0.011 mPa·s

**Q.** What about the viscosity (303.15 K, 101.33 kPa, x1 = 0.0009) of the same molecule?
**A.** 0.781 ± 0.011 mPa·s

**Q.** What about the viscosity (303.15 K, 101.33 kPa, x1 = 0.0059) of the same molecule?
**A.** 0.808 ± 0.011 mPa·s

**Q.** What about the viscosity (303.15 K, 101.33 kPa, x1 = 0.01) of the same molecule?
**A.** 0.834 ± 0.011 mPa·s

**Q.** What about the viscosity (303.15 K, 101.33 kPa, x1 = 0.0136) of the same molecule?
**A.** 0.856 ± 0.012 mPa·s

**Q.** What about the viscosity (303.15 K, 101.33 kPa, x1 = 0.0616) of the same molecule?
**A.** 1.18 ± 0.015 mPa·s

**Q.** What about the viscosity (303.15 K, 101.33 kPa, x1 = 0.1054) of the same molecule?
**A.** 1.529 ± 0.02 mPa·s

**Q.** What about the viscosity (303.15 K, 101.33 kPa, x1 = 0.1634) of the same molecule?
**A.** 2.03 ± 0.025 mPa·s

**Q.** What about the viscosity (303.15 K, 101.33 kPa, x1 = 0.1935) of the same molecule?
**A.** 2.348 ± 0.029 mPa·s

**Q.** What about the viscosity (303.15 K, 101.33 kPa, x1 = 0.2969) of the same molecule?
**A.** 3.435 ± 0.042 mPa·s

**Q.** And the viscosity (303.15 K, 101.33 kPa, x1 = 0.3955)?
**A.** 4.638 ± 0.056 mPa·s

**Q.** What about the viscosity (303.15 K, 101.33 kPa, x1 = 0.4982) of the same molecule?
**A.** 6 ± 0.069 mPa·s
